Laboratory results published in ChEMBL document CHEMBL1143495, “Topological model for the prediction of MRP1 inhibitory activity of pyrrolopyrimidines and templates derived from pyrrolopyrimidine” (Bioorg Med Chem Lett, 2005).

Biological target: Multidrug resistance-associated protein 1 (Homo sapiens, UniProt P33527)
Experiment: Inhibitory concentration against multidrug resistance associated protein 1

Chain of Multidrug resistance-associated protein 1 (P33527 whole entry): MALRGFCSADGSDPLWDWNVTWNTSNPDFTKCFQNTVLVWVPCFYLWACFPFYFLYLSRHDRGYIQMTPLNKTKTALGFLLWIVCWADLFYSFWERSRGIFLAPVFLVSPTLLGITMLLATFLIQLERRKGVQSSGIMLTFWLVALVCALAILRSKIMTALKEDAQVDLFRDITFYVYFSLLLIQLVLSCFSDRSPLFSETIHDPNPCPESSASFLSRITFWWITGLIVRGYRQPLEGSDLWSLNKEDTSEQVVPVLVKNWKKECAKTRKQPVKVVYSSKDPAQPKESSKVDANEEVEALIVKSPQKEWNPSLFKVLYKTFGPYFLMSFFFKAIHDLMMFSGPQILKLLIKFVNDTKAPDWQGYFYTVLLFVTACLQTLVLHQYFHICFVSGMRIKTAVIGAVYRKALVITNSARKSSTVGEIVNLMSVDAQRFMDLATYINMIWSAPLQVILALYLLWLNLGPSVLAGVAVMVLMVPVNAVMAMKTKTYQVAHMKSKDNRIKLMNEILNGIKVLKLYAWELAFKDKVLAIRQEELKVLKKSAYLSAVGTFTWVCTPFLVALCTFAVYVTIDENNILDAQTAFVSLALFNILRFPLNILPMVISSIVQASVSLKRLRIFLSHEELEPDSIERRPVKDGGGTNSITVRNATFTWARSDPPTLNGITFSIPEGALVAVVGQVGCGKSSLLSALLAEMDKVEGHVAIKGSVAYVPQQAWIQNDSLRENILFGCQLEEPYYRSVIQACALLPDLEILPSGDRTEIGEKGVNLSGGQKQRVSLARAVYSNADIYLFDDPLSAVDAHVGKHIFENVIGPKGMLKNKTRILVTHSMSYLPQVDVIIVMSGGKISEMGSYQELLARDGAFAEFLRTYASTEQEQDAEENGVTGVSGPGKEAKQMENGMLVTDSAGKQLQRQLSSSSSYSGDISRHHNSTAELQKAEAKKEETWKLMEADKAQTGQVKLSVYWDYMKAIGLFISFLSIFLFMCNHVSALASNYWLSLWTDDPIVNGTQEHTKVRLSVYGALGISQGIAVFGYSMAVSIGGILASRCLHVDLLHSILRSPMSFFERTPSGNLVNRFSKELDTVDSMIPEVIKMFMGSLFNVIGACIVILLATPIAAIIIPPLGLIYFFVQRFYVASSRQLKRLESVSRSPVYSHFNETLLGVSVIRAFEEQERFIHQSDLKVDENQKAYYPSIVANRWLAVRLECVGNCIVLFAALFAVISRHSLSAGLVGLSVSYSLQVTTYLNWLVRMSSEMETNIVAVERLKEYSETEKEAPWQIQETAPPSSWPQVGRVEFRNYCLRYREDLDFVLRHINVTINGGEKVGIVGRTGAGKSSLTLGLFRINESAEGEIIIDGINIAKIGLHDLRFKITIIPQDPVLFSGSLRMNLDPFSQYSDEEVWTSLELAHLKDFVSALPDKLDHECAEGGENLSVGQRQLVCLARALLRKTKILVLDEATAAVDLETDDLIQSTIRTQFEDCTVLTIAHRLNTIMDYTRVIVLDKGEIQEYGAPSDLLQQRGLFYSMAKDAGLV

SMILES	IC50
Cc1c([N+](=O)[O-])nc2c(c1C(N)=O)c1ncnc(N3CCN(CCc4ccc(F)c(F)c4)CC3)c1n2C	< 0.25 µM
CCOC(=O)Cn1c2cccc(C(N)=O)c2c2ncnc(N3CCN(CCc4ccc(F)c(F)c4)CC3)c21	< 0.25 µM
Cc1cnc2c(c1C#N)c1ncnc(N3CCN(CCc4ccc(F)c(F)c4)CC3)c1n2C	≥ 0.25 µM
Cc1cnc2c(c1C(N)=O)c1ncnc(N3CCN(CCc4ccc(F)c(F)c4)CC3)c1n2C	< 0.25 µM
O=C(NCc1ccccn1)c1c2n(c3c(N4CCN(CCc5ccc(F)c(F)c5)CC4)ncnc13)CCCC2	< 0.25 µM
N#Cc1c2n(c3c(N4CCN(CCc5ccc(F)c(F)c5)CC4)nc(-c4ccncc4)nc13)CCCC2	< 0.25 µM
COc1cccc(CNC(=O)c2c3n(c4c(N5CCN(CCc6ccc(F)c(F)c6)CC5)ncnc24)CCCC3)c1OC	< 0.25 µM
N#Cc1c2n(c3c(N4CCN(CCc5ccccc5)CC4)nc(-c4ccccc4)nc13)CCCC2	≥ 0.25 µM
N#Cc1c2n(c3c(NS(=O)(=O)Cc4ccccc4)ncnc13)CCCC2	≥ 0.25 µM
CN(CCc1ccccc1)c1ncnc2c(C#N)c3n(c12)CCCC3	≥ 0.25 µM
Cc1ccccc1-c1nc(N2CCN(CCc3ccc(F)c(F)c3)CC2)c2c(n1)c(C#N)c1n2CCCC1	≥ 0.25 µM
N#Cc1c2n(c3c(NCCN4CCc5ccccc5C4)ncnc13)CCCC2	≥ 0.25 µM
N#Cc1c2n(c3c(N4CCN(CCc5c[nH]c6ccccc56)CC4)ncnc13)CCCC2	≥ 0.25 µM
O=C(c1ccccc1)c1c2n(c3c(N4CCN(CCc5ccccc5)CC4)ncnc13)CCCC2	≥ 0.25 µM
N#Cc1c2n(c3c(NCCc4ccccc4)ncnc13)CCCC2	≥ 0.25 µM
N#Cc1c2n(c3c(N4CCN(CCc5ccc(F)c(F)c5)CC4)nc(-c4cccnc4)nc13)CCCC2	< 0.25 µM
CC(=O)Nc1ccc(-c2nc(N3CCN(CCc4ccccc4)CC3)c3c(n2)c(C#N)c2n3CCCC2)cc1	≥ 0.25 µM

The next lines start with the values.

IC50	SMILES
≥ 0.25 µM	COc1cccc(CCN2CCN(c3ncnc4c(C#N)c5n(c34)CCCC5)CC2)c1
≥ 0.25 µM	COc1ccc(CCN2CCN(c3ncnc4c(C#N)c5n(c34)CCCC5)CC2)cc1
< 0.25 µM	NC(=O)c1c2n(c3c(N4CCN(CCc5ccc(F)c(F)c5)CC4)ncnc13)CCCC2
≥ 0.25 µM	N#Cc1c2n(c3c(N4CCN(CCCc5ccccc5)CC4)ncnc13)CCCC2
< 0.25 µM	N#Cc1c2n(c3c(N4CCN(CCc5ccc(F)c(F)c5)CC4)ncnc13)CCCC2
≥ 0.25 µM	Cc1nc(-c2c3n(c4c(N5CCN(CCc6ccccc6)CC5)ncnc24)CCCC3)sc1C
≥ 0.25 µM	N#Cc1c2n(c3c(N4CCN(CCc5ccccc5[N+](=O)[O-])CC4)ncnc13)CCCC2
≥ 0.25 µM	N#Cc1c2n(c3c(N4CCN(CCc5ccc([N+](=O)[O-])cc5)CC4)ncnc13)CCCC2
≥ 0.25 µM	N#Cc1c2n(c3c(N4CCN(CCc5cccc([N+](=O)[O-])c5)CC4)ncnc13)CCCC2
≥ 0.25 µM	CCC(=O)c1c2n(c3c(N4CCN(CCc5ccccc5)CC4)ncnc13)CCCC2
≥ 0.25 µM	N#Cc1c2n(c3c(N4CCN(CCc5ccccc5Cl)CC4)ncnc13)CCCC2
≥ 0.25 µM	N#Cc1c2n(c3c(N4CCN(CCc5ccccc5)CC4)nc(I)nc13)CCCC2
≥ 0.25 µM	N#Cc1c2n(c3c(N4CCN(CC(=O)c5ccccc5)CC4)ncnc13)CCCC2
≥ 0.25 µM	N#Cc1c2n(c3c(N4CCN(CCc5cccc(Cl)c5)CC4)ncnc13)CCCC2
≥ 0.25 µM	COC(=O)c1c2n(c3c(N4CCN(CCc5ccccc5)CC4)ncnc13)CCCC2
≥ 0.25 µM	c1ccc(CCN2CCN(c3ncnc4c(-c5ncccn5)c5n(c34)CCCC5)CC2)cc1
≥ 0.25 µM	N#Cc1c2n(c3c(N4CCN(CCc5ccc(Cl)cc5)CC4)ncnc13)CCCC2
≥ 0.25 µM	Cc1nc(-c2c3n(c4c(N5CCN(CCc6ccccc6)CC5)ncnc24)CCCC3)no1
≥ 0.25 µM	N#Cc1c2n(c3c(N4CCN(S(=O)(=O)Cc5ccccc5)CC4)ncnc13)CCCC2
